Measured values published in patent US20200291018A1, “TAM KINASE INHIBITORS” (SYROS PHARMACEUTICALS, INC., priority 2017, published 2020).
Where a name gives a salt, the structure may show the parent alone.

Tests used:
[1] = molecular target: T1, AXL (Homo sapiens, UniProt P30530); assay: TR-FRET kinase activity assay, AXL; assay type: biochemical; conditions: ATP at Km, 60 minutes
T1 sequence (P30530 26-894): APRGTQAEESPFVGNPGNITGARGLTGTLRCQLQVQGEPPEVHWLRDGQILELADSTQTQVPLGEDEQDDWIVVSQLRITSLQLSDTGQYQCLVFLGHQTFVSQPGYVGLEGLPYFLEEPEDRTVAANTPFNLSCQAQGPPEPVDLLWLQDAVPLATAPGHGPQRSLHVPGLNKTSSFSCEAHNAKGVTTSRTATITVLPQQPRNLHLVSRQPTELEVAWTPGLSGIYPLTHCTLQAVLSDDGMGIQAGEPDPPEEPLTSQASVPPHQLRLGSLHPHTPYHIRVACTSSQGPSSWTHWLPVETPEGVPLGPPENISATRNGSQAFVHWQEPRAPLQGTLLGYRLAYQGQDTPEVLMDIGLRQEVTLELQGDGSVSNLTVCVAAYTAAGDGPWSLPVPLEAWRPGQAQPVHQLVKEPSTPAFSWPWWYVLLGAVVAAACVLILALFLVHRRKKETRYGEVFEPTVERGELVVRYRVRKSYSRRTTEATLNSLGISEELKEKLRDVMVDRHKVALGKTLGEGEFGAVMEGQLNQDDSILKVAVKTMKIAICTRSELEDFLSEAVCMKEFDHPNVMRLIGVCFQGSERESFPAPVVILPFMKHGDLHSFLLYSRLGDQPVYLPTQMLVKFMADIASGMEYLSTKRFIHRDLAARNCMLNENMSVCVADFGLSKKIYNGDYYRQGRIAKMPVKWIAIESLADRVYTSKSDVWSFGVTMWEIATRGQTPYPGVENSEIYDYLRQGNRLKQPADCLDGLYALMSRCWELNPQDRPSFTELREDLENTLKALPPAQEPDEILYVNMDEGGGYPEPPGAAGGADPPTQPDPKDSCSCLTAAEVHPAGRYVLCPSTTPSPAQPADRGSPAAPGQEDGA
How it was run: (§1)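 IC50 came from TR-FRET signal after 30 min dark development with a Europium-labeled phospho-specific antibody. This followed a 60 min RT reaction, stopped with EDTA, started with ATP at Km per enzyme. Peptide substrate, enzyme and compound were premixed in HEPES pH 7.5 buffer with MgCl2, EGTA, Brij 35 and DTT.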

[2] = molecular target: T2, FLT3 (Homo sapiens, UniProt P36888); assay: TR-FRET kinase activity assay, FLT3; assay type: biochemical; conditions: ATP at Km, 60 minutes
T2 sequence (P36888 27-993): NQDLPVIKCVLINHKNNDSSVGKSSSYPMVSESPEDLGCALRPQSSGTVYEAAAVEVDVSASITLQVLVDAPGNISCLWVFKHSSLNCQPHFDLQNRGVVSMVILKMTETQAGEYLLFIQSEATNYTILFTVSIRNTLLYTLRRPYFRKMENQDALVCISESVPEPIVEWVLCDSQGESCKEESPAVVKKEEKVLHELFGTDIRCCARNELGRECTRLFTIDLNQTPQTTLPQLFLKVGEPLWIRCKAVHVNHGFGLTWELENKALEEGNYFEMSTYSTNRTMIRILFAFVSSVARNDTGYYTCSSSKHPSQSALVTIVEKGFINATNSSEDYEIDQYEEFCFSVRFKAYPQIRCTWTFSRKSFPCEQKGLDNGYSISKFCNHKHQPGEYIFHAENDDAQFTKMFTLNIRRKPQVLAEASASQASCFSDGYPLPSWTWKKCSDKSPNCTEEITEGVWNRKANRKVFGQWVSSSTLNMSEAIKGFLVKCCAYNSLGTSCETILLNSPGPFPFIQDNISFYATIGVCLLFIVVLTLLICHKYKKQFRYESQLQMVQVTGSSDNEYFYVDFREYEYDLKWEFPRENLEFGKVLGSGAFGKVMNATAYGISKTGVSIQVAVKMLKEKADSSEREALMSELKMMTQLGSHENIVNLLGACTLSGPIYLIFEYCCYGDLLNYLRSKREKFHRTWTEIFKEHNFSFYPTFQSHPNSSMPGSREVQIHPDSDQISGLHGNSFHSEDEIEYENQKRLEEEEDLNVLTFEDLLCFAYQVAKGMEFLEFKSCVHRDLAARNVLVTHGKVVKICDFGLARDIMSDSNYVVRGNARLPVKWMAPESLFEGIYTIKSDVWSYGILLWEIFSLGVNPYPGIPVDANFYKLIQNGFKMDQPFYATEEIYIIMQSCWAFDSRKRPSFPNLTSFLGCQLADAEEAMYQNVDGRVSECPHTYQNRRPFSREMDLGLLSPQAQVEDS
How it was run: as §1

IC50 [1] [nM] | IC50 [2] [nM] | Compound
100 to 1000 | 1000 to 10000 | CCCC(C)Nc1ncc2c(O[C@H]3CC[C@@H](O)CC3)ncc([C@H]3CC[C@H](O)CC3)c2n1 (stereo partly shown) [Compound 148]
1000 to 10000 | 1000 to 10000 | C[C@H](Nc1ncc2c(OC3CCNCC3)ncc([C@H]3CC[C@H](O)CC3)c2n1)c1ccccc1 [Compound 189]
100 to 1000 | 1000 to 10000 | CC(C)C(C)Nc1ncc2c(OC3CCNCC3)ncc([C@H]3CC[C@H](O)CC3)c2n1 (stereo partly shown) [Compound 178]
1000 to 10000 | 1000 to 10000 | O[C@H]1CC[C@H](c2cnc(OC3CCNCC3)c3cnc(NC4CCC(F)(F)CC4)nc32)CC1 [Compound 164]
1000 to 10000 | 1000 to 10000 | CCCC(C)Nc1ncc2c(=O)n(C3CCN(C(=O)CN(C)C)CC3)cc([C@H]3CC[C@H](O)CC3)c2n1 (stereo partly shown) [Compound 192]
100 to 1000 | 1000 to 10000 | CCCC(C)Nc1ncc2c(=O)n(CC3CCN(C)CC3)cc([C@H]3CC[C@H](O)CC3)c2n1 (stereo partly shown) [Compound 193]
≤ 100 | 100 to 1000 | CCC[C@H](C)Nc1ncc2c(OC3CCNCC3)ncc([C@H]3CC[C@H](O)CC3)c2n1 [Compound 171]
100 to 1000 | ≤ 100 | CC1(C)CC(Nc2ncc3c(OC4CCOCC4)ncc([C@H]4CC[C@H](O)CC4)c3n2)C1 [Compound 144]
100 to 1000 | 100 to 1000 | CCCC(C)Nc1ncc2c(O[C@H]3C[C@@H](O)C3)ncc([C@H]3CC[C@H](O)CC3)c2n1 (stereo partly shown) [Compound 176]
≤ 100 | ≤ 100 | COC(=O)N[C@H]1C[C@@H](Oc2ncc([C@H]3CC[C@H](O)CC3)c3nc(N[C@@H](C)CC(F)(F)F)ncc23)C1 [Compound 435]
100 to 1000 | 100 to 1000 | O[C@H]1CC[C@H](c2cnc(OC3CCNCC3)c3cnc(NC4CCCCC4)nc32)CC1 [Compound 183]
100 to 1000 | 1000 to 10000 | CCCC(C)Nc1ncc2c(=O)n(C3CCN(C(C)C)CC3)cc([C@H]3CC[C@H](O)CC3)c2n1 (stereo partly shown) [Compound 186]
1000 to 10000 | 1000 to 10000 | COC[C@@H](C)Nc1ncc2c(OC3CCOCC3)ncc([C@H]3CC[C@H](O)CC3)c2n1 [Compound 145]
100 to 1000 | 1000 to 10000 | CCCC(C)Nc1ncc2c(OC3CCC(OC)CC3)ncc([C@H]3CC[C@H](O)CC3)c2n1 (stereo partly shown) [Compound 147]
100 to 1000 | 100 to 1000 | CCCC(C)Nc1ncc2c(OC3CCOCC3)ncc([C@H]3CC[C@H](N(C)C)CC3)c2n1 (stereo partly shown) [Compound 185]
100 to 1000 | 100 to 1000 | CCCC(C)Nc1ncc2c(O[C@H]3C[C@H](O)C3)ncc([C@H]3CC[C@H](O)CC3)c2n1 (stereo partly shown) [Compound 187]
100 to 1000 | 1000 to 10000 | CCCC(C)Nc1ncc2c(OC3CCN(CC(=O)N(C)C)CC3)ncc([C@H]3CC[C@H](O)CC3)c2n1 (stereo partly shown) [Compound 172]
1000 to 10000 | 1000 to 10000 | Cc1nccn1CCNc1ncc2c(OC3CCNCC3)ncc([C@H]3CC[C@H](O)CC3)c2n1 [Compound 163]
100 to 1000 | 100 to 1000 | CCCC(C)Nc1ncc2c(NC3CCN(C(=O)C(F)(F)F)CC3)ncc([C@H]3CC[C@H](O)CC3)c2n1 (stereo partly shown) [Compound 165]
≤ 100 | ≤ 100 | CC1CC(Nc2ncc3c(OC4CCNCC4)ncc([C@H]4CC[C@H](O)CC4)c3n2)C1 (stereo partly shown) [Compound 167]
1000 to 10000 | 1000 to 10000 | CCC[C@@H](C)Nc1ncc2c(=O)n(C3CCNCC3)cc([C@H]3CC[C@H](O)CC3)c2n1 [Compound 152]
1000 to 10000 | 1000 to 10000 | CCCC(C)Nc1ncc2c(=O)n(CCN(C)C)cc([C@H]3CC[C@H](O)CC3)c2n1 (stereo partly shown) [Compound 169]
100 to 1000 | 100 to 1000 | CC1CC(Nc2ncc3c(OC4CCNCC4)ncc([C@H]4CC[C@@H](O)CC4)c3n2)C1 (stereo partly shown) [Compound 168]
≤ 100 | 100 to 1000 | CC(=O)N[C@H]1C[C@@H](Oc2ncc([C@H]3CC[C@H](O)CC3)c3nc(N[C@@H](C)CC(F)(F)F)ncc23)C1 [Compound 433]

More lines, now with the values behind:

Compound | IC50 [1] [nM] | IC50 [2] [nM]
CCCCNc1ncc2c(OC3CCN(C)CC3)ncc([C@H]3CC[C@H](O)CC3)c2n1 [Compound 131] | ≤ 100 | ≤ 100
CCCCNc1ncc2c(NCc3ccc(F)cc3)ncc([C@H]3CC[C@H](O)CC3)c2n1 [Compound 103, 4-[2-(butylamino)-5-[(4-fluorophenyl)methylamino]pyrido[4,3-d]pyrimidin-8-yl]cyclohexanol hydrochloride] | 100 to 1000 | ≤ 100
O[C@H]1CC[C@H](c2cnc(OC3CCOCC3)c3cnc(NC4CCCC4)nc32)CC1 [Compound 132] | ≤ 100 | ≤ 100
CC(C)Nc1ncc2c(OC3CCNCC3)ncc([C@H]3CC[C@H](O)CC3)c2n1 [Compound 135] | ≤ 100 | 1000 to 10000
CCCCNc1ncc2c(OC3CCNCC3)ncc([C@H]3CC[C@H](O)CC3)c2n1 [Compound 129] | ≤ 100 | ≤ 100
CCCC(C)Nc1ncc2c(OC3CCOCC3)ncc([C@H]3CC[C@H](O)CC3)c2n1 (stereo partly shown) [Compound 133] | 100 to 1000 | 1000 to 10000
O[C@H]1CC[C@H](c2cnc(OC3CCNCC3)c3cnc(N[C@H]4CCOC4)nc32)CC1 [Compound 136] | 100 to 1000 | 1000 to 10000
COCCN1[C@@H]2CC[C@H]1C[C@H](Oc1ncc([C@H]3CC[C@H](O)CC3)c3nc(N[C@@H](C)CC(F)(F)F)ncc13)C2 [Compound 432] | ≤ 100 | 100 to 1000
CCCC(C)Nc1ncc2c(=O)n(C3CCN(S(C)(=O)=O)CC3)cc([C@H]3CC[C@@H](O)CC3)c2n1 (stereo partly shown) [Compound 138] | 100 to 1000 | 1000 to 10000
CCC(C)Nc1ncc2c(OC3CCOCC3)ncc([C@H]3CC[C@H](O)CC3)c2n1 (stereo partly shown) [Compound 140] | 100 to 1000 | 1000 to 10000
CC(=O)N1[C@@H]2CC[C@H]1C[C@H](Oc1ncc([C@H]3CC[C@H](O)CC3)c3nc(N[C@@H](C)CC(F)(F)F)ncc13)C2 [Compound 436] | ≤ 100 | 100 to 1000
CCCC(C)Nc1ncc2c(OC3CCS(=O)(=O)CC3)ncc([C@H]3CC[C@H](O)CC3)c2n1 (stereo partly shown) [Compound 141] | 100 to 1000 | 1000 to 10000
O[C@H]1CC[C@H](c2cnc(OC3CCOCC3)c3cnc(Nc4ccc(Cl)cc4)nc32)CC1 [Compound 134, (1r,4r)-4-(2-((4-chlorophenyl)amino)-5-((tetrahydro-2H-pyran-4-yl)oxy)pyrido[4,3-d]pyrimidin-8-yl)cyclohexan-1-ol] | ≤ 100 | 100 to 1000
CCCCNc1ncc2c(=O)n(-c3ccc(CN4CCOCC4)cc3)cc([C@H]3CC[C@H](O)CC3)c2n1 [Compound 101] | 100 to 1000 | 100 to 1000
CCCCNc1ncc2c(OC)ncc([C@H]3CC[C@H](O)CC3)c2n1 [Compound 127] | ≤ 100 | ≤ 100
C[C@@H](CC(F)(F)F)Nc1ncc2c(O[C@@H]3C[C@H]4CC[C@@H](C3)N4C3COC3)ncc([C@H]3CC[C@H](O)CC3)c2n1 [Compound 437] | ≤ 100 | 100 to 1000
CCCC(C)Nc1ncc2c(N(C)C3CCN(C)CC3)ncc([C@H]3CC[C@H](O)CC3)c2n1 (stereo partly shown) [Compound 146] | 1000 to 10000 | 1000 to 10000
